According to paper PMC11940309, “Endocrine-Disrupting Activities of Flavones on Steroid Receptors: Structural Requirements and Synthesis of Novel Flavone with Improved Estrogenic Activity” (Biomedicines, 2025):

What was measured:
[1] = molecular target: T1, progesterone receptor (PR) (Homo sapiens, UniProt P06401); experiment: PR-mediated induction of transcription by R5020 in T47D K5pLuc cells (luciferase reporter and endogenous alkaline phosphatase); type: cell-based; conditions: T47D, 8 µM, R5020 1.0 nM
T1 sequence (P06401 679-933 limits assumed): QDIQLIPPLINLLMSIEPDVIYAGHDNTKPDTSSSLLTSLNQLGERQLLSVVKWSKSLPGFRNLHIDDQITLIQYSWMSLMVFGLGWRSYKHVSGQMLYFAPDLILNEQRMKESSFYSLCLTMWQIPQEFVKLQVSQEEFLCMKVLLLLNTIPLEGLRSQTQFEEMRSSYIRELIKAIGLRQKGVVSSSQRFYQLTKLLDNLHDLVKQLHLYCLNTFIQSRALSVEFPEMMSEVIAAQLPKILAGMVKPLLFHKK
Source text: (§1) The engineered T47D breast cancer cell lines employed for the assessment of flavonoid activity on glucocorticoid receptor (GR) and progesterone receptor (PR) signaling permitted the facile quantitation transcription of both an endogenous gene and a stably integrated reporter gene. […] The T47D K5pLuc cell line responds to progestins via induction of a stably integrated cytokeratin 5-luciferase reporter gene. […] For assessment of the effect of the test compounds on androgen receptor (AR) signaling, we used the HeLa13 cell line engineered to stably express human AR and a PSA-luciferase reporter gene containing a 4× multimerized PSA upstream enhancer ARE1 linked to the E4 TATA box and luciferase gene.
Experiments testing the effect of flavonoids on progesterone receptor-mediated transcription employed T47D K5pluc cells. The protocol was the same as that for T47D (A1-2) cells except the medium was Dulbecco’s Modified Eagle’s Medium supplemented with 10% FBS, insulin (10 nM), puromycin 200 ng/mL, nonessential amino acids, penicillin (100 U/mL), and streptomycin (100 μg/mL). When treated with hormone, the synthetic progestin, R5020, was used at 1.0 nM. Hormone treatment was for 20 h at which time cells were harvested for assay of alkaline phosphatase and luciferase.
(§2) For all cell lines, cell harvesting and the luminescence assay for alkaline phosphatase and/or luciferase were performed as previously described in detail. Each condition was performed in quadruplicate. […] Percent inhibition is 100 minus the percent induction.

human AR = molecular target: T2, human AR (Homo sapiens, UniProt P10275); experiment: AR-mediated induction of PSA-luciferase reporter by R1881 in HeLa13 cells; type: cell-based; conditions: R1881 1.0 nM, read-out: % Inhibition of AR-Mediated Gene Induction
T2 construct: expressed in transfected cells; host or cells: HeLa13 (HeLa 13)
T2 sequence (P10275 1-920): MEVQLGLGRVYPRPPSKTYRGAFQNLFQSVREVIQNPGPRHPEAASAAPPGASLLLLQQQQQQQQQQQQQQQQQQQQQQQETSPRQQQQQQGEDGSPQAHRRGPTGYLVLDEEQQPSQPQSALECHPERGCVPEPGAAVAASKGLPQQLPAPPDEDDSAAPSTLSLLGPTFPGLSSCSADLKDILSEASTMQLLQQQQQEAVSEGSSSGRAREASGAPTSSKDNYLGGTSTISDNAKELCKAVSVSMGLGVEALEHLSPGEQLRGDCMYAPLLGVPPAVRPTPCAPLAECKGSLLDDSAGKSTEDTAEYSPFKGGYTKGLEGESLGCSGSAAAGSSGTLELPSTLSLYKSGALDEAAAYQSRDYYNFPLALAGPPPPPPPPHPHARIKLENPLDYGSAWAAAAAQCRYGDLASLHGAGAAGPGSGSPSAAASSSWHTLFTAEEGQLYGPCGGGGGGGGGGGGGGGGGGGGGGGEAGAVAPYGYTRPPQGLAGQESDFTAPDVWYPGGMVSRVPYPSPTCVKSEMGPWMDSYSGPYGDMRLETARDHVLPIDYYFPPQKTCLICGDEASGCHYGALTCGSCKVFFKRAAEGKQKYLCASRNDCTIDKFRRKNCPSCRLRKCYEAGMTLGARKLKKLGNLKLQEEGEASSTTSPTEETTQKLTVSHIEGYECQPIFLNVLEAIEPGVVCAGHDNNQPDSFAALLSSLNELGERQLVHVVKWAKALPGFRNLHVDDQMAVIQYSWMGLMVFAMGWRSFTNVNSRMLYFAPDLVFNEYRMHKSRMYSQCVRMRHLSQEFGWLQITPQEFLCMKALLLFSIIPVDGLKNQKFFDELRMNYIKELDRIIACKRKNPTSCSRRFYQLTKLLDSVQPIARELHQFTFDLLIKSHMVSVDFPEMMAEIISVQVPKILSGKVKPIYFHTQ
Source text: as §1
Experiments testing the effect of flavonoid on androgen receptor-mediated transcription employed HeLa 13 cells maintained in MEM medium supplemented with 10% FBS, 0.5 mg/mL G418, 0.05 mg/mL Hygromycin B, […], and streptomycin (100 μg/mL). For reporter gene experiments, cells were replated at a 1:5 dilution in MEM medium with 5% charcoal-stripped FBS and the antibiotics mentioned above. The medium was changed the next day. After 48 h, the cells were washed with PBSE, detached with phenol red-free trypsin, pelleted, resuspended and plated in 96 well plates as above. Hormone and flavonoid treatments were performed as described above with the HeLa 13 medium and charcoal-stripped FBS. When treated with hormone, the synthetic androgen, R1881, was used at 1.0 nM. Hormone treatment was for 20 h at which time cells were harvested for assay of luciferase.
as §2

estrogen receptor (ER) [2] = experiment: ER-mediated luciferase reporter induction in T47D KBluc cells; type: cell-based, human; conditions: for % ER Induction: relative to 1nM estradiol
Description: Experiments testing the effect of flavonoids on estrogen receptor-mediated transcription employed T47D KBluc cells. These cells were maintained in RPMI medium with 10% FBS, penicillin (100 U/mL), and streptomycin (100 μg/mL). For reporter gene experiments, cells were detached as above and replated at 50% confluency in phenol red-free RPMI media with 10% charcoal-stripped FBS and antibiotics (day one). All subsequent steps used phenol red-free medium and trypsin. On day three, the medium was replaced with fresh medium. On day five, cells were washed with PBSE, detached, resuspended, diluted, and replated in the phenol red-free RPMI with charcoal-stripped serum (50,000 cells per well as above).
as §2

estrogen receptor (ER) [3] = test system: estrogen receptor (ER); design: method as in PMID 11925457; conditions: previous report; cited from earlier work

SMILES	inhibition at 8 µM ([1]; AP (alkaline phosphatase)) [%]	inhibition at 8 µM ([1]; LUC (luciferase)) [%]	inhibition at 4 µM (human AR) [%]	% ER Induction (estrogen receptor (ER) [2]; 1 µM) [%]	% ER Induction (estrogen receptor (ER) [2]; 4 µM) [%]	inhibition at 1 µM (human AR) [%]	EC50 lower than that of 6,4′-dihydroxyflavone (estrogen receptor (ER) [2]; comparison at lower concentrations)	affinity for ER greater than that of 6,4′-dihydroxyflavone (estrogen receptor (ER) [3]) [fold]
Oc1ccc(C2COc3cc(O)ccc3C2)cc1 (stereo not drawn) [7,4′-dihydroxyisoflavan]	42	-88	22	96	84	–	–	–
O=c1c(O)c(-c2ccc(O)cc2)oc2ccc(O)cc12 [3,6,4′-trihydroxyflavone]	–	–	71	102	108	53	2–3 fold	3
COc1ccc2oc(-c3ccc(O)cc3)cc(=O)c2c1 [6-methoxy,4′-hydroxyflavone]	–	–	49	129	167	27	–	–
